Assay results taken from patent publication US4616081A, “Cephalosporin compounds” (Asahi Kasei Kogyo Kabushiki Kaisha, priority 1982, dated 1986).

Legend:
Staph. aureus MS27 = assay: MIC against Staph. aureus MS27; assay type: cell-based
Method: (§1) Nextly, antibacterial activity or minimum inhibitory concentration (MIC) was measured and the results are shown in Table 1 with respect to the following representative compounds according to the present invention. [drawing 19]
(§2) With respect to Compound Nos. 14 and 15, antibacterial activity or minimum inhibitory concentration (MIC) was measured and the results are shown in Table 2. [drawing 21]

Sarcina lutea ATCC 9341 = assay: MIC against Sarcina lutea ATCC 9341; assay type: cell-based
Method: as §1, §2

E. coli NIHJ-JC2 = assay: MIC against E. coli NIHJ-JC2; assay type: cell-based
Method: as §1, §2

Serratia marcescens = assay: MIC against Serratia marcescens; assay type: cell-based
Method: as §1, §2

E. coli W3630 PS3 = assay: MIC against E. coli W3630 PS3; assay type: cell-based
Method: as §1, §2

Staph. aureus ATCC 6538P = assay: MIC against Staph. aureus ATCC 6538P; assay type: cell-based
Method: as §1, §2

[1] = test system: Klebs. pneumoniae ATCC 10031; assay: MIC against Klebs. pneumoniae ATCC 10031; assay type: cell-based
Method: as §1, §2

E. coli W3630 = assay: MIC against E. coli W3630; assay type: cell-based
Method: as §1, §2

Shigella sonnei E33 = assay: MIC against Shigella sonnei E33; assay type: cell-based
Method: as §1, §2

[2] = test system: Enterobact. aerogenes 0655; assay: MIC against Enterobact. aerogenes 0655; assay type: cell-based
Method: as §1, §2

[3] = test system: Salm. enteritidis Gaertner; assay: MIC against Salm. enteritidis Gaertner; assay type: cell-based
Method: as §1, §2

Proteus morganii 0239 = assay: MIC against Proteus morganii 0239; assay type: cell-based
Method: as §1, §2

[4] = test system: Citrobact. freundii GN346; assay: MIC against Citrobact. freundii GN346; assay type: cell-based
Method: as §1, §2

Staph. pyogenes NY5 = assay: MIC against Staph. pyogenes NY5; assay type: cell-based
[5] = test system: Enterobact. cloacae GN336; assay: MIC against Enterobact. cloacae GN336; assay type: cell-based
Method: as §1, §2

[6] = acute toxicity test using mice, intraperitoneal; conditions: mouse, in vivo, ip
Text: In addition to excellent antibacterial activity, the compounds of the present invention are low in toxicity. For example, in acute toxicity test using mice, the following results were obtained with Compound Nos. 2, 3, 7, 14, 15 and 23 which were intraperitoneally administered.

[7] = maximum blood concentration after oral administration in Wister rats (HPLC and Bioassay); assay type: in vivo; conditions: Wister rat, fasted, 30 mg/kg, solution of pH 7 in phosphate buffer
Method: Further in the compounds according to the present invention, intestinal absorption is improved by the introduction of amino acids at the 3-position thereof. For example, comparison of the maximum blood concentration of the Compound Nos. 2, 3, 7, 8, 14, 15 and 23 with that of Comparative Compound (b) establishes and affirms the effects, as is shown below. In the above test, the method for measurement of blood concentration was as follows. Rate: Wister rat weighing 170 to 220 g Dose: 30 mg/kg Wister rats were fasted from the previous night but freely accessible to water. Each of drugs was administered as a solution of pH 7 in a phosphate buffer, when orally administered. The blood concentration was measured in accordance with the High Performance Liquid Chromatography (HPLC) method and the Bioassay method by using E. coli as bacteria for test.

[8] = Bacterial count inoculated 10^6 cells/ml
[9] = Bacterial count inoculated 10^8 cells/ml

CCN1CCN(C(=O)NC(C(=O)NC2C(=O)N3C(C(=O)O)=C(CSc4nnnn4C)CSC23)c2ccc(O)cc2)C(=O)C1=O (stereo not drawn) [Comparative Compound (c), reference compound]
Minimum Inhibitory Concentration (MIC) (Staph. aureus MS27; [8]): 3.1
Minimum Inhibitory Concentration (MIC) (Staph. aureus MS27; [9]): 50
Minimum Inhibitory Concentration (MIC) (Sarcina lutea ATCC 9341; [8]): ≤ 0.2
Minimum Inhibitory Concentration (MIC) (Sarcina lutea ATCC 9341; [9]): ≤ 0.2
Minimum Inhibitory Concentration (MIC) (E. coli NIHJ-JC2; [8]): ≤ 0.2
Minimum Inhibitory Concentration (MIC) (E. coli NIHJ-JC2; [9]): 6.3
Minimum Inhibitory Concentration (MIC) (Serratia marcescens; [8]): 0.8
Minimum Inhibitory Concentration (MIC) (Serratia marcescens; [9]): > 100
Minimum Inhibitory Concentration (MIC) (E. coli W3630 PS3; [8]): ≤ 0.2
Minimum Inhibitory Concentration (MIC) (E. coli W3630 PS3; [9]): 25
Minimum Inhibitory Concentration (MIC) (Staph. aureus ATCC 6538P; [8]): 1.6
Minimum Inhibitory Concentration (MIC) (Staph. aureus ATCC 6538P; [9]): 1.6
Minimum Inhibitory Concentration (MIC) [1, 8]: ≤ 0.2
Minimum Inhibitory Concentration (MIC) [1, 9]: > 100
Minimum Inhibitory Concentration (MIC) (E. coli W3630; [8]): 0.4
Minimum Inhibitory Concentration (MIC) (E. coli W3630; [9]): 25
Minimum Inhibitory Concentration (MIC) (Shigella sonnei E33; [8]): ≤ 0.2
Minimum Inhibitory Concentration (MIC) (Shigella sonnei E33; [9]): ≤ 0.2
Minimum Inhibitory Concentration (MIC) [2, 8]: 0.8
Minimum Inhibitory Concentration (MIC) [2, 9]: > 100
Minimum Inhibitory Concentration (MIC) [3, 8]: 0.4
Minimum Inhibitory Concentration (MIC) [3, 9]: 50
Minimum Inhibitory Concentration (MIC) (Proteus morganii 0239; [8]): 0.8
Minimum Inhibitory Concentration (MIC) (Proteus morganii 0239; [9]): > 100
Minimum Inhibitory Concentration (MIC) [4, 8]: 50
Minimum Inhibitory Concentration (MIC) [4, 9]: > 100
Minimum Inhibitory Concentration (MIC) (Staph. pyogenes NY5; [8]): ≤ 0.2
Minimum Inhibitory Concentration (MIC) (Staph. pyogenes NY5; [9]): 0.4
Minimum Inhibitory Concentration (MIC) [5, 8]: ≤ 0.2
Minimum Inhibitory Concentration (MIC) [5, 9]: 50

CO/N=C(\C(=O)N[C@@H]1C(=O)N2C(C(=O)O)=C(CSc3nnc(CC(N)C(=O)O)s3)CS[C@H]12)c1csc(N)n1 (stereo partly drawn) [Compound No. 7]
Minimum Inhibitory Concentration (MIC) (Staph. aureus MS27; [8]): 3.1
Minimum Inhibitory Concentration (MIC) (Staph. aureus MS27; [9]): 3.1
Minimum Inhibitory Concentration (MIC) (Sarcina lutea ATCC 9341; [8]): ≤ 0.2
Minimum Inhibitory Concentration (MIC) (Sarcina lutea ATCC 9341; [9]): ≤ 0.2
Minimum Inhibitory Concentration (MIC) (E. coli NIHJ-JC2; [8]): 0.4
Minimum Inhibitory Concentration (MIC) (E. coli NIHJ-JC2; [9]): 0.2
Minimum Inhibitory Concentration (MIC) (Serratia marcescens; [8]): ≤ 0.2
Minimum Inhibitory Concentration (MIC) (Serratia marcescens; [9]): 100
Minimum Inhibitory Concentration (MIC) (E. coli W3630 PS3; [8]): ≤ 0.2
Minimum Inhibitory Concentration (MIC) (E. coli W3630 PS3; [9]): 1.6
LD50 [6]: 9000 to 12000 mg/kg
Minimum Inhibitory Concentration (MIC) (Staph. aureus ATCC 6538P; [8]): 1.6
Minimum Inhibitory Concentration (MIC) (Staph. aureus ATCC 6538P; [9]): 3.1
Minimum Inhibitory Concentration (MIC) [1, 8]: ≤ 0.2
Minimum Inhibitory Concentration (MIC) [1, 9]: 0.8
Minimum Inhibitory Concentration (MIC) (E. coli W3630; [8]): ≤ 0.2
Minimum Inhibitory Concentration (MIC) (E. coli W3630; [9]): 0.8
Minimum Inhibitory Concentration (MIC) (Shigella sonnei E33; [8]): ≤ 0.2
Minimum Inhibitory Concentration (MIC) (Shigella sonnei E33; [9]): 0.2
Minimum Inhibitory Concentration (MIC) [2, 8]: ≤ 0.2
Minimum Inhibitory Concentration (MIC) [2, 9]: 25
Minimum Inhibitory Concentration (MIC) [3, 8]: ≤ 0.2
Minimum Inhibitory Concentration (MIC) [3, 9]: 3.1
Minimum Inhibitory Concentration (MIC) (Proteus morganii 0239; [8]): ≤ 0.2
Minimum Inhibitory Concentration (MIC) (Proteus morganii 0239; [9]): 25
Cmax [7]: 7000 ng/mL
Minimum Inhibitory Concentration (MIC) [4, 8]: 50
Minimum Inhibitory Concentration (MIC) [4, 9]: 100
Minimum Inhibitory Concentration (MIC) (Staph. pyogenes NY5; [8]): ≤ 0.2
Minimum Inhibitory Concentration (MIC) (Staph. pyogenes NY5; [9]): 0.2
Minimum Inhibitory Concentration (MIC) [5, 8]: ≤ 0.2
Minimum Inhibitory Concentration (MIC) [5, 9]: 12.5

CC(C)(O/N=C(\C(=O)N[C@@H]1C(=O)N2C(C(=O)O)=C(CSc3nnc(CC(N)C(=O)O)s3)CS[C@H]12)c1csc(N)n1)C(=O)O (stereo partly drawn) [Compound No. 8]
Cmax [7]: 8000 ng/mL
